The values below come from patent US20260295053A1, “COMPOUNDS FOR DEGRADATION AND INHIBITION OF KRAS (G12D) PROTEIN” (Shenzhen Ionova Life Science Co., Ltd., priority 2023, published 2026).

One test has as its target T1, KRAS (G12D) (Homo sapiens, UniProt P01116, G12D).
T1 construct: in-cell western with KRAS G12D antibody after 24 h
The test is described as follows: KRAS (G12D) cellular degradation assay in AsPC-1 cells. As to conditions: 24 hours, antibody fluorescence (Odyssey CLX), DC50 half-maximal degradation concentration. In kind it is cell-based. Put shortly:
(§1)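 AsPC-1 cells: for degradation, grown to ~90% confluency, treated 24 h with 1:3 compound series ([…] to 1.5 nM), then fixed and immunostained for KRAS G12D and β-actin, read by infrared fluorescence, DC50 fitted. Proliferation: 3,500 cells/well, 6-day treatment, CellTiter Glo luminescence, IC50 fitted.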

In a further test the test system is AsPC-1 cells. The test is described as follows: AsPC-1 cell proliferation assay (CellTiter Glo). It is filed as cell-based. As to conditions: Homo sapiens, ASPC1, 144 h, 6 days. Put shortly:
as §1

Structures are written as SMILES.

As a reminder, the DC50 is the concentration giving 50% degradation. Low values mean a more potent degrader, high ones a less potent degrader. For orientation: IC50 means the concentration at which inhibition is half-maximal. A higher IC50 goes with weaker potency.

T1 sequence (P01116 1-188 isoform P01116-2 G12D): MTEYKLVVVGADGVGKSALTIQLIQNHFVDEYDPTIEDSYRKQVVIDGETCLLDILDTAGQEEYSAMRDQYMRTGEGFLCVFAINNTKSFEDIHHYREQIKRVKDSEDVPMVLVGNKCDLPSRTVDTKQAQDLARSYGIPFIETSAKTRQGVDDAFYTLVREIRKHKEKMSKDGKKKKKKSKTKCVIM

For the compound `CCc1ncccc1C#C[C@H](CO)NC(=O)[C@@H]1C[C@@H](O)CN1C(=O)[C@H](C(C)C)n1cc(-c2ccc(COc3c(-c4c(C)c(F)cc5[nH]ncc45)c(C4CC4)cc4c(N5C[C@@H]6C[C@H]5CN6)nc(OC[C@H](C)OC)nc34)cc2)nn1` [Example 46, (2S,4R)-1-((2S)-2-(4-(4-(((4-((1S,4S)-2,5-diazabicyclo[2.2.1]heptan-2-yl)-6-cyclopropyl-7-(6-fluoro-5-methyl-1H-indazol-4-yl)-2-((S)-2-methoxypropoxy)quinazolin-8-yl)oxy)methyl)phenyl)-1H-1,2,3-triazol-1-yl)-3-methylbutanoyl)-N—((R)-4-(2-ethylpyridin-3-yl)-1-hydroxybut-3-yn-2-yl)-4-hydroxypyrrolidine-2-carboxamide], the DC50 on KRAS (G12D) was 10 to 100 nM. In addition, the IC50 in the test with AsPC-1 cells is below 10 nM.

For `CCn1nccc1-c1ccc([C@H](CO)NC(=O)[C@@H]2C[C@@H](O)CN2C(=O)[C@H](C(C)C)n2cc(-c3ccc(COc4c(-c5c(C)c(F)cc6[nH]ncc56)c(C5CC5)cc5c(N6C[C@@H]7C[C@H]6CN7)nc(OCC(F)(F)COC)nc45)cc3)nn2)cc1` [Example 47, (2S,4R)-1-((2S)-2-(4-(4-(((4-((1S,4S)-2,5-diazabicyclo[2.2.1]heptan-2-yl)-6-cyclopropyl-2-(2,2-difluoro-3-methoxypropoxy)-7-(6-fluoro-5-methyl-1H-indazol-4-yl)quinazolin-8-yl)oxy)methyl)phenyl)-1H-1,2,3-triazol-1-yl)-3-methylbutanoyl)-N—((R)-1-(4-(1-ethyl-1H-pyrazol-5-yl)phenyl)-2-hydroxyethyl)-4-hydroxypyrrolidine-2-carboxamide], at KRAS (G12D), the DC50 was below 10 nM. In the test with AsPC-1 cells, this compound came in with an IC50 below 10 nM.

On to `CCn1nccc1-c1ccc([C@H](CO)NC(=O)[C@@H]2C[C@@H](O)CN2C(=O)[C@H](C(C)C)n2cc(-c3ccc(COc4c(-c5c(C)c(F)cc6[nH]ncc56)c(C5CC5)cc5c(N6C[C@@H]7C[C@H]6CN7)nc(OCC(OC)C(F)(F)F)nc45)cc3)nn2)cc1` (stereo partly drawn) [Example 48, (2S,4R)-1-((2S)-2-(4-(4-(((4-((1S,4S)-2,5-diazabicyclo[2.2.1]heptan-2-yl)-6-cyclopropyl-7-(6-fluoro-5-methyl-1H-indazol-4-yl)-2-(3,3,3-trifluoro-2-methoxypropoxy)quinazolin-8-yl)oxy)methyl)phenyl)-1H-1,2,3-triazol-1-yl)-3-methylbutanoyl)-N—((R)-1-(4-(1-ethyl-1H-pyrazol-5-yl)phenyl)-2-hydroxyethyl)-4-hydroxypyrrolidine-2-carboxamide], for which, at KRAS (G12D), the DC50 is below 10 nM. This compound displayed an IC50 with AsPC-1 cells below 10 nM.

Compound `Cc1ncsc1-c1ccc([C@H](CO)NC(=O)[C@@H]2C[C@@H](O)CN2C(=O)[C@H](C(C)C)n2cc(-c3ccc(COc4c(-c5c(C)c(F)cc6[nH]ncc56)c(C5CC5)cc5c(N6CC7CCC(C6)N7)nc(OC6CCOCC6)nc45)cc3)nn2)cc1` [Example 49, (2S,4R)-1-((2S)-2-(4-(4-(((4-(3,8-diazabicyclo[3.2.1]octan-3-yl)-6-cyclopropyl-7-(6-fluoro-5-methyl-1H-indazol-4-yl)-2-((tetrahydro-2H-pyran-4-yl)oxy)quinazolin-8-yl)oxy)methyl)phenyl)-1H-1,2,3-triazol-1-yl)-3-methylbutanoyl)-4-hydroxy-N—((R)-2-hydroxy-1-(4-(4-methylthiazol-5-yl)phenyl)ethyl)pyrrolidine-2-carboxamide] came in with a 50% degradation concentration (DC50) at KRAS (G12D) below 10 nM. The compound further showed an IC50 with AsPC-1 cells below 10 nM.

In turn, `CCn1nccc1-c1ccc([C@H](CO)NC(=O)[C@@H]2C[C@@H](O)CN2C(=O)[C@H](C(C)C)n2cc(-c3ccc(COc4c(-c5c(C)c(F)cc6[nH]ncc56)c(C5CC5)cc5c(N6C[C@@H]7C[C@H]6CN7)nc(OCC6COC7OCCC67)nc45)cc3)nn2)cc1` (stereo partly drawn) [Example 51, (2S,4R)-1-((2S)-2-(4-(4-(((4-((1S,4S)-2,5-diazabicyclo[2.2.1]heptan-2-yl)-6-cyclopropyl-7-(6-fluoro-5-methyl-1H-indazol-4-yl)-2-((hexahydrofuro[2,3-b]furan-3-yl)methoxy)quinazolin-8-yl)oxy)methyl)phenyl)-1H-1,2,3-triazol-1-yl)-3-methylbutanoyl)-N—((R)-1-(4-(1-ethyl-1H-pyrazol-5-yl)phenyl)-2-hydroxyethyl)-4-hydroxypyrrolidine-2-carboxamide] returned a DC50 at KRAS (G12D) below 10 nM. In addition, in the test with AsPC-1 cells, the IC50 was below 10 nM.

Consider `CCn1nccc1-c1ccc([C@H](CO)NC(=O)[C@@H]2C[C@@H](O)CN2C(=O)[C@H](C(C)C)n2cc(-c3ccc(COc4c(-c5c(C)c(F)cc6[nH]ncc56)c(C5CC5(F)F)cc5c(N6C[C@@H]7C[C@H]6CN7)nc(OC[C@H](C)OC)nc45)cc3)nn2)cc1` (stereo partly drawn) [Example 52, (2S,4R)-1-((2S)-2-(4-(4-(((4-((1S,4S)-2,5-diazabicyclo[2.2.1]heptan-2-yl)-6-(2,2-difluorocyclopropyl)-7-(6-fluoro-5-methyl-1H-indazol-4-yl)-2-((S)-2-methoxypropoxy)quinazolin-8-yl)oxy)methyl)phenyl)-1H-1,2,3-triazol-1-yl)-3-methylbutanoyl)-N—((R)-1-(4-(1-ethyl-1H-pyrazol-5-yl)phenyl)-2-hydroxyethyl)-4-hydroxypyrrolidine-2-carboxamide], for which the DC50 on KRAS (G12D) is 10 to 100 nM. For the same compound, the IC50 in the test with AsPC-1 cells was below 10 nM.

`CCn1nccc1-c1ccc([C@H](CO)NC(=O)[C@@H]2C[C@@H](O)CN2C(=O)[C@H](C(C)C)n2cc(-c3ccc(COc4c(-c5c(C)c(F)cc6[nH]ncc56)c(C5CC5)cc5c(N6C[C@@H]7C[C@H]6CN7)nc(OCC6(C(F)F)CC6)nc45)cc3)nn2)cc1` [Example 53, (2S,4R)-1-((2S)-2-(4-(4-(((4-((1S,4S)-2,5-diazabicyclo[2.2.1]heptan-2-yl)-6-cyclopropyl-2-((1-(difluoromethyl)cyclopropyl)methoxy)-7-(6-fluoro-5-methyl-1H-indazol-4-yl)quinazolin-8-yl)oxy)methyl)phenyl)-1H-1,2,3-triazol-1-yl)-3-methylbutanoyl)-N—((R)-1-(4-(1-ethyl-1H-pyrazol-5-yl)phenyl)-2-hydroxyethyl)-4-hydroxypyrrolidine-2-carboxamide] showed a DC50 on KRAS (G12D) below 10 nM. Further, in the test with AsPC-1 cells, the IC50 is below 10 nM.

`CO[C@@H](C)COc1nc(N2C[C@@H]3C[C@H]2CN3)c2cc(C3CC3)c(-c3c(C)c(F)cc4[nH]ncc34)c(OCc3ccc(-c4cn([C@H](C(=O)N5C[C@H](O)C[C@H]5C(=O)N[C@H](C#Cc5ccc6ncsc6c5)CO)C(C)C)nn4)cc3)c2n1` [Example 54, (2S,4R)-1-((2S)-2-(4-(4-(((4-((1S,4S)-2,5-diazabicyclo[2.2.1]heptan-2-yl)-6-cyclopropyl-7-(6-fluoro-5-methyl-1H-indazol-4-yl)-2-((S)-2-methoxypropoxy)quinazolin-8-yl)oxy)methyl)phenyl)-1H-1,2,3-triazol-1-yl)-3-methylbutanoyl)-N—((R)-4-(benzo[d]thiazol-6-yl)-1-hydroxybut-3-yn-2-yl)-4-hydroxypyrrolidine-2-carboxamide] showed a DC50 at KRAS (G12D) of 10 to 100 nM. This compound showed an IC50 in the test on AsPC-1 cells below 10 nM.
